Data published in US5455248A, “Substituted 6,11-ethano-6,11-dihydrobenzo[b] quinolizinium salts, and compositions and method of use thereof” (Sterling Winthrop Inc., priority 1993, dated 1995).

Legend:
[1] = molecular target: PCP recognition sites (PCP receptor), rat whole brain membranes; assay: [^3 H]TCP Radioreceptor Assay (internal screen); type: binding, Male Sprague-Dawley rats; settings: for Ki / [^3 H]TCP (internal screen) Percent (%) inhibition @10 μM: [^3 H]TCP approx. 1 nM, room temperature 25 min; for Ki: mean of at least two separate determinations
Method: [^3 H]TCP binding to PCP recognition sites was performed as described by Vignon et al. Brain Research 1983, 280, 194-197. Male Sprague-Dawley rats were sacrificed by decapitation, and whole brains were homogenized in 10 volumes (wt/vol) of cold Tris-HCl buffer (50 mM, pH 7.7) using a Brinkmann Polytron (setting 6, 30 sec). The homogenate was centrifuged at 40,000×g for 10 min at 4° C. The supernatant was decanted, and the homogenization and centrifugation steps were repeated twice as described above. Following this, the pellet was resuspended in Tris-HCl (5 mM, pH 7.7) at a tissue concentration of 0.5-0.75 g/ml, and one ml aliquots were frozen at -70° C. until use. The binding characteristics for PCP recognition sites were not altered by the freezing of membrane suspensions.
On the day of the assay, membrane aliquots were thawed, resuspended in fresh 5 mM Tris-HCl buffer at a tissue concentration of 1 mg/ml, and stored on ice until use. Each assay tube contained 100 μl of [^3 H]TCP at a final concentration of approximately 1 nM, 100 μl of various concentrations of the compounds of interest, 500 μl of the tissue suspension and 300 μl of buffer to a final assay volume of 1 ml and a final protein concentration of 0.5 mg/tube. Non-specific binding was defined by addition of […]. All tubes were incubated at room temperature for 25 min before termination of the reaction by rapid filtration over Whatman GF/B glass fiber filters that had been presoaked in a solution of 0.5% polyethylenimine for at least 1 hr prior to use. Filters were washed with three 4 ml volumes of cold Tris buffer. Following addition of scintillation cocktail, the amount of bound radioactivity was determined by liquid scintillation spectrometry using a Beckman LS 5000TA liquid scintillation counter with an efficiency for tritium of approximately 55%. Inhibition constants (Ki values) were calculated using the EBDA/LIGAND program (McPherson, J. Pharmacol. Meth. 1985, 14, 213-228), purchased from Elsevier/Biosoft, Inc. Results are reported as Ki values which are expressed as the mean of at least two separate determinations, or as a percent (%) inhibition of binding at 10 μM.

[2] = tested on: NMDA-induced neurotoxicity in cultured cortical neurons; assay: Antagonism of NMDA-induced Neurotoxicity in Cultured Neurons; type: cell-based, Swiss-Webster mice; settings: 500 μM NMDA for 30 minutes, LDH activity after 24 hours
Method: Pregnant, Swiss-Webster mice were obtained from Taconic Farms (Germantown, N.Y.) and sacrificed 16 days post conception. Fetuses were removed and placed in a sterile dish containing Hank's balanced salt solution (HBSS), pH 7.4. Brain cortices were dissected, meninges were removed, the tissue was minced and placed into a solution of HBSS containing 0.25% (w/v) trypsin at 37° C. for 15 minutes. Tissue was then triturated with a sterile pasteur pipet, diluted with minimal essential media (Gibco 330-1430), pH 7.4, supplemented with 10% horse serum, 10% fetal calf serum, 2 mM 1-glutamine, 21 mM d-glucose, 2.2 g/L sodium bicarbonate, 1000 U/ml penicillin, and 1,000 μg/ml streptomycin. Cells were plated onto Falcon primaria 96 well plates at a final density of 50,000 cells/well and incubated at 37° C. in the presence of 5% (v/v) carbon dioxide. After 5 days, plating media was replaced with maintenance media containing minimal essential media (Gibco 330-1430), pH 7.4, supplemented with 10% horse serum, […], 21 mM d-glucose, 2.2 g/1 sodium bicarbonate,1,000 U/ml penicillin, 1,000 μg/ml streptomycin, and 10 μM cytosine arabinoside. On days 7 and 10, media was replaced with maintenance media as above lacking the cytosine arabinoside. Experiments were conducted on day 13.
Day 13 cultured cortical neurons were washed twice with minimal essential media, pH 7.4 and then exposed for 30 minutes to 500 μM N-methyl-D-aspartic acid (NMDA) with or without varying concentrations of test agents. Dizocilpine (MK-801) at a final concentration of 10 μM MK-801 was routinely included as a positive control. MK-801 and test agents were prepared in minimal essential media supplemented with 21 mM d-glucose and 2.2 g/L sodium bicarbonate (MEM). After 30 minutes, media was replaced with MEM alone. Exposure of neurons to test agents was limited to the NMDA treatment period. Twenty-four hours after removal of NMDA, an aliquot of media from each well was removed for assessment of cell injury by determining lactate dehydrogenase (LDH) activity by the method of Wroblewski and LaDue Proc. Soc. […]

[3] = tested on: PCP recognition sites (PCP receptor), whole rat forebrain membranes; assay: [^3 H]TCP Radioreceptor Assay (external screen); type: binding; settings: 25° C. for 60 minutes
Method: Representative compounds of the invention were also tested in an external [^3 H]TCP radioreceptor assay using the following protocol:
A procedure similar to that described above for the [^3 H]TCP radioreceptor assay (internal screen) was utilized except that the whole rat forebrain membranes were incubated at 25° C. for 60 minutes rather than at room temperature for 25 minutes, before termination of the reaction. The results are reported as a percent (%) inhibition of binding at 10 μM.

Compound | Ki [1] | further results
12-isopropylidene-13,13-dimethyl-6,11-ethano-6,11-dihydrobenzo[b]quinolizinium perchlorate (Formula I: R^1 =H; R^2 =R^3 =CH3 ; R^4 and R^5 together =isopropylidene; X^- =ClO4^-) and 12,12-dimethyl-13-isopropylidene-6,11-ethano-6,11-dihydrobenzo[b]quinolizinium perchlorate [Example 16] | 265 nM | 
C=C(C)C1(C)CC2c3ccccc3C1c1cccc[n+]12 (single isomer, unassigned) [Example 2, 6,11-ethano-12-isopropenyl-12-methyl-6,11-dihydrobenzo[b]quinolizinium bromide] | 208 nM | IC50 ([2]; Mus musculus, Cortical neurone): 7300 nM
C=C(C)C1(COC)CC2c3ccccc3C1c1cccc[n+]12.[O-][Cl+3]([O-])([O-])[O-] (single isomer, unassigned) [Example 4, 6,11-ethano-12-isopropenyl-12-methoxymethyl-6,11-dihydrobenzo[b]quinolizinium perchlorate] | 313 nM | 
CC(C)(C)C1C2c3ccccc3C(C1C(C)(C)C)[n+]1ccccc12.F[P-](F)(F)(F)(F)F (single isomer, unassigned) [Example 6, 6,11-ethano-12-tert-butyl13-tert-butyl-6,11-dihydrobenzo[b]quinolizinium hexafluorophosphate] |  | [^3 H]TCP (internal screen) Percent (%) inhibition @10 μM [1]: 44%
CC(C)(C)C1C2c3ccccc3C(C1C(C)(C)C)[n+]1ccccc12 (single isomer, unassigned) [Example 7, 6,11-ethano-12-tert-butyl-13-tert-butyl-6,11-dihydrobenzo[b]quinolizinium hexafluorophosphate] | 5090 nM | 
C=CC1CC2c3ccccc3C1c1cccc[n+]12 (single isomer, unassigned) [Example 13(a), 6,11-ethano-12-ethylene-6,11-dihydrobenzo[b]quinolizinium bromide] |  | [^3 H]TCP (internal screen) Percent (%) inhibition @10 μM [1]: 49%
c1ccc2c(c1)C1CC3(CCC3)C2c2cccc[n+]21 (stereo not shown) [10(b), 6,11-ethano-12,12-(1'-spirocyclobutane)-6,11-dihydrobenzo[b]-quinoliziniumchloride] | 3110 nM | 
OCC1(CO)CC2c3ccccc3C1c1cccc[n+]12 (stereo not shown) [11(b), 6,11-ethano-12,12-dihydroxymethyl-6,11-dihydrobenzo[b]quinolizinium chloride] | 1950 nM | 
c1ccc2c(c1)C1CC3(C4CC5CC(C4)CC3C5)C2c2cccc[n+]21 (stereo not shown) [15(b), 6,11-ethano-12,12-(2'-spiro-adamantane)-6,11-dihydrobenzo[b]quinolizinium chloride] | 5280 nM | 
CCOCC1(COCC)CC2c3ccccc3C1c1cccc[n+]12 (stereo not shown) [17(b), 12,12-diethoxymethyl-6,11-ethano-6,11-dihydrobenzo[b]quinolizinium chloride] | 353 nM | 
C#CC1(C#C)CC2c3ccccc3C1c1cccc[n+]12 (stereo not shown) [18(b), 12,12-diethynyl-6,11-ethano-6,11-dihydrobenzo[b]quinolizinium hexafluorophosphate] | 883 nM | 
CC1(C)C2c3ccccc3C([n+]3ccccc32)C1(C)C.[O-][Cl+3]([O-])([O-])[O-] (stereo not shown) [Example 1, 6,11-ethano-12, 12, 13,13-tetramethyl-6,11-dihydrobenzo[b]quinolizinium perchlorate] | 21.2 nM | 
C=C(C)C1(C)CC2c3ccccc3C1c1cccc[n+]12 (stereo not shown) [Example 3, 6,11-ethano-12-isopropenyl-12-methyl-6,11-dihydrobenzo[b]quinolizinium bromide] | 191 nM | IC50 [2]: 5880 nM
C=C(C)C1(C)CC2c3ccccc3C1c1cccc[n+]12 (stereo not shown) [Example 5, 6,11-ethano-12-isopropenyl-12-methyl-6,11dihydrobenzo[b]quinolizinium chloride] | 65.2 nM | IC50 [2]: 2810 nM
[O-][Cl+3]([O-])([O-])[O-].c1ccc2c(c1)C1CC(C3CC3)(C3CC3)C2c2cccc[n+]21 (stereo not shown) [Example 8, 6,11-ethano-12,12-dicyclopropyl-6,11-dihydrobenzo[b]-quinolizinium perchlorate] | 88.1 nM | 
c1ccc2c(c1)C1CC(C3CC3)(C3CC3)C2c2cccc[n+]21 (stereo not shown) [Example 9, 6.11-ethano-12,12-dicyclopropyl-6,11-dihydrobenzo[b]quinolizinium chloride] | 103 nM | 
C=C(C)C1(C)CC2(C)c3ccccc3C1c1cccc[n+]12.[O-][Cl+3]([O-])([O-])[O-] (stereo not shown) [Example 12, 6,11-ethano-6-methyl-12-isopropenyl-12-methyl-6,11-dihydrobenzo[b]quinolizinium perchlorate] | 69 nM | 
CC(C)=CC1C2c3ccccc3C([n+]3ccccc32)C1(C)C (stereo not shown) [Example 14, 6,11-ethano-12-(2,2-dimethyl)ethylene-13,13-dimethyl-6,11-dihydrobenzo[b]quinolizinium hexafluorophosphate] | 3540 nM | 
CC(C)C1(C(C)C)CC2c3ccccc3C1c1cccc[n+]12 (stereo not shown) [Example 19, 12,12-diisopropyl-6,11-dihydrobenzo[b]quinolizium hexafluorophosphate] | 6010 nM | 
C=C(C)C1(C)CC2c3ccccc3C1c1cccc[n+]12.[O-][Cl+3]([O-])([O-])[O-] (stereo not shown) [Example 20, 6,11-ethano-12-isopropenyl-12-methyl-6,11-dihydrobenzo[b]quinolizinium perchlorate] | 45.7 nM | binding to the PCP receptor (in words) [1]: found to bind to the PCP receptor; [^3 H]TCP (external screen) Percent inhibition (%) @10 μM [3]: 94%
